Test results published in publication PMC6917733 (Scientific Reports, 2019).
Values joined by “and” are separate entries in the source; they are usually repeats but may differ in a detail not shown here. Equal values may be shown once. Blank lines part the entries; values can stand above or below the compound they belong to. Bridge positions count the residues as written; N and C are the ends. Peptide text beside a SMILES is read from it.

Experiments:
human OTR [1] = target: T1, human OTR (Homo sapiens, UniProt P30559); experiment: β-arrestin-2 recruitment BRET at OTR
T1 sequence (P30559 1-389): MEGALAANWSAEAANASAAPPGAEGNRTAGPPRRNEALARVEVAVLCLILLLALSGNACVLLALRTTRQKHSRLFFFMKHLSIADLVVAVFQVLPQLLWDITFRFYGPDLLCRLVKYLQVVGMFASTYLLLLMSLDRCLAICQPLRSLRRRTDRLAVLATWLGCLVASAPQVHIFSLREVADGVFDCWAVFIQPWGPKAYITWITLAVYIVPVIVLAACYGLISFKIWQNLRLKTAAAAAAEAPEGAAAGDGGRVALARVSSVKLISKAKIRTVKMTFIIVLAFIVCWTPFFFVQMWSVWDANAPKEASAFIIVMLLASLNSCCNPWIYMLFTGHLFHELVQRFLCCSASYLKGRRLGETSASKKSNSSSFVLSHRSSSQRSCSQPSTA

human V1aR [2] = target: T2, human V1aR (Homo sapiens, UniProt P37288); experiment: β-arrestin-2 recruitment BRET at V1aR
human V1bR [3] = target: T3, human V1bR (Homo sapiens, UniProt P47901); experiment: β-arrestin-2 recruitment BRET at V1bR; type: cell-based; parameters: expressed in transfected cells; host or cells: HEK293; conditions: for EC50: β-arrestin-2 recruitment
T3 sequence (P47901 1-424): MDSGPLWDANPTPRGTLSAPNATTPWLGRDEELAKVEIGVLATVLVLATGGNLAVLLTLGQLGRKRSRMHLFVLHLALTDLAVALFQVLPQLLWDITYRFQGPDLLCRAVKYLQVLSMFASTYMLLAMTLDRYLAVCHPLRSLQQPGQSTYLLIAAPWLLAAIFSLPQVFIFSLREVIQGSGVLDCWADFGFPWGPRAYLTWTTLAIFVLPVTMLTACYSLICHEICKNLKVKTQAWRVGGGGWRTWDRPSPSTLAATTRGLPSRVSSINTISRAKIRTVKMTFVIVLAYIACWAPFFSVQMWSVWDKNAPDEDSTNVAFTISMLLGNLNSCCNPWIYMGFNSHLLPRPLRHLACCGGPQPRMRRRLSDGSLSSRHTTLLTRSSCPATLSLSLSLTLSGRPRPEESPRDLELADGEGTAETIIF

human OTR [4] = target: T1, human OTR; experiment: IP1 accumulation (IP-One Gq assay), HEK293 cells expressing OTR
human V2R [5] = target: T4, human V2R (Homo sapiens, UniProt P30518); experiment: β-arrestin-1 recruitment BRET at V2R
human V1aR [6] = target: T2, human V1aR; experiment: IP1 accumulation (IP-One Gq assay), HEK293 cells expressing V1aR; conditions: concentrations up to 10 µM
human V1aR [7] = target: T2, human V1aR; experiment: Antagonist screen and Schild regression analysis (IP1) at V1aR
human V2R [8] = target: T4, human V2R; experiment: cAMP accumulation (LANCE Ultra cAMP), HEK293 cells expressing V2R
human V2R [9] = target: T4, human V2R; experiment: β-arrestin-2 recruitment BRET at V2R; type: cell-based; parameters: expressed in transfected cells; host or cells: HEK293
[10] = tested on: V2R-mediated ERK 1/2 phosphorylation; experiment: Immunoblotting for ERK 1/2 phosphorylation in HEK293 cells expressing V2R; type: cell-based, human; conditions: 1 µM peptide
Protocol: Immunoblotting was performed as described previously. Briefly, following an overnight incubation and 16 h starvation HEK293 cells transiently expressing human V2R were treated with 1 µM I8-arachnotocin or 1 µM VP prepared in DMEM. Cells were incubated with peptide ligands at 37 °C for indicated periods and 1 mL of chilled 1x phosphate-buffered saline were used to terminate the incubation. After freeze-thaw cycle in liquid nitrogen cells were solubilized in 100 µl of lysis buffer (50 mM HEPES, 0.5% NP-40 substitute, 50 mM glycerol-2-phosphate, 250 mM NaCl, 5 mM EDTA, 2 mM imidazole, 1 mM Na3VO4, 1 mM hepta-molybdate, pH adjusted to 7.0 with NaOH), freshly added 1 mM PMSF, one cOmplete Mini EDTA-free tablet (Roche) and one PhosSTOP tablet (Roche) and then centrifuged at 10,000 × g for 10 min. The bicinchoninic acid assay (Micro-BCA kit, Pierce) was used to measure total protein content. Phosphorylated and total ERK 1/2 were detected by immunoblotting on the same membrane using the same exposure method with an anti-phospho-p44/42 MAPK antibody (ERK 1/2) (1:1,000; Cell Signaling Technology) and an anti-p44/42 MAPK (ERK 1/2) (1:1,000; Cell Signaling Technology), respectively. Detection and quantification of resulting bands were executed by secondary antibodies (Donkey anti rabbit 680RD and […]) and Odyssey Clx (LiCor Biosciences) infrared fluorescent imaging system, respectively.

human V1bR [11] = target: T3, human V1bR; experiment: IP1 accumulation (IP-One Gq assay), HEK293 cells expressing V1bR
[12] = target: EGFP-tagged human vasopressin V2 receptor (human) (UniProt P30518)
[13] = target: EGFP-tagged human vasopressin V1b receptor (human) (UniProt P47901)
[14] = target: EGFP-tagged human oxytocin receptor (human) (UniProt P30559)
[15] = target: EGFP-tagged human vasopressin V1b receptor (human) (UniProt P47901); remark: listed apart in the source
[16] = target: EGFP-tagged human oxytocin receptor (human) (UniProt P30559); remark: listed apart in the source
[17] = target: EGFP-tagged human vasopressin V2 receptor (human) (UniProt P30518); remark: listed apart in the source
[18] = target: EGFP-tagged human vasopressin V1a receptor (human) (UniProt P37288)

Emax (human OTR [1]): 32 ± 5% | EC50 (human OTR [1]; EC50, β-arrestin-2 recruitment, OTR): 5700 nM | β-arrestin-2 recruitment kinetics (human OTR [1]; OTR, 10 µM ligand): absent | bias (method of Kenakin) compared to OT (human OTR [1]; OTR, G protein vs β-arrestin-2): did not detect differences | EC50 (human OTR [1]; pEC50 (as logEC50 ± SEM), β-arrestin-2 recruitment, OTR): 5750 nM | β-arrestin-2 recruitment kinetics (human V1aR [2]; 10 µM ligand): absent | Emax (human V1bR [3]): 65 ± 5% | bias (method of Kenakin) compared to VP (human V1bR [3]; V1bR, G protein vs β-arrestin-2): did not detect differences | EC50 (human V1bR [3]; V1bR, read-out: EC50): 1200 nM | EC50 (human V1bR [3]; V1bR, read-out: pEC50 (as logEC50 ± SEM) (converted)): 1200 nM | EC50 (human OTR [4]; EC50, IP1 accumulation, G protein-mediated, OTR): 790 nM | Emax (human OTR [4]; HEK293): 62 ± 6% | type of agonism (human OTR [4]; OTR, second messenger signaling): partial agonist | fold less potent compared to the endogenous peptide (human OTR [4]; OTR, vs OT): 65 fold | EC50 (human OTR [4]; pEC50 (as logEC50 ± SEM), IP1 accumulation, OTR): 776 nM | β-arrestin-1 recruitment kinetics (human V2R [5]; 10 µM ligand, time-dependent): failed to recruit β-arrestin-1 | β-arrestin-1 recruitment (human V2R [5]; up to 100 µM): no β-arrestin-1 recruitment | activation of V1aR (human V1aR [6]): No activation | pA2 expressed as concentration (human V1aR [7]; Schild regression at V1aR): 558 nM and ~ 558 nM | pA2 (human V1aR [7]; Schild regression, VP curves in presence of 1, 3, 10 µM I8-arachnotocin): 6.25 and 6.253 | Schild regression slope (human V1aR [7]; V1aR, VP as agonist): 1.28 ± 0.02 | type of antagonism (human V1aR [7]; V1aR, dextral shift without affecting Emax): competitive antagonist | IP1 levels in antagonist screen (human V1aR [7]; VP (0.55 nM) in the presence of 1 and 10 µM I8-arachnotocin): lower IP1 levels than VP alone | EC50 (human V2R [8]; EC50, cAMP accumulation, G protein-mediated, V2R): 34 nM | Emax (human V2R [8]; HEK293): 99 ± 3% | type of agonism (human V2R [8]; V2R, second messenger signaling): full agonist | fold less potent compared to the endogenous peptide (human V2R [8]; V2R, vs VP): 5,000 fold | EC50 (human V2R [8]; pEC50 (as logEC50 ± SEM), cAMP accumulation, V2R): 33.9 nM | difference non-β-arrestin-dependent vs β-arrestin-dependent EC50 (human V2R [9]): > 2,000 fold | β-arrestin-2 recruitment kinetics (human V2R [9]; 10 µM ligand): absent | β-arrestin-2 recruitment (human V2R [9]; up to a concentration of 100 µM): did not recruit β-arrestin-2 | EC50 (human V2R [9]; β-arrestin-1 or -2 recruitment, read-out: EC50 of β-arrestin-dependent signaling pathway): > 100000 nM | EC50 (human V1bR [11]; EC50, IP1 accumulation, G protein-mediated, V1bR): 1200 nM | Emax (human V1bR [11]; HEK293): 104 ± 8% | type of agonism (human V1bR [11]; V1bR, second messenger signaling): full agonist | fold less potent compared to the endogenous peptide (human V1bR [11]; V1bR, vs VP): 750 fold | EC50 (human V1bR [11]; pEC50 (as logEC50 ± SEM), IP1 accumulation, V1bR): 1170 nM
Compound: CC[C@H](C)[C@@H]1NC(=O)[C@H](Cc2ccccc2)NC(=O)[C@@H](N)CSSC[C@@H](C(=O)N2CCC[C@H]2C(=O)N[C@H](C(=O)NCC(N)=O)[C@@H](C)CC)NC(=O)[C@H](CC(N)=O)NC(=O)[C@H]([C@@H](C)O)NC1=O [I8-arachnotocin] (H-CFITNCPIG-NH2; disulfide 1-6; N-terminus assumed)
β-arrestin-2 recruitment (human V1aR [2]; concentration up to 100 µM): no I8-arachnotocin-induced β-arrestin-2 recruitment was detected | course of ERK 1/2 phosphorylation after the peak (late phase, 30–120 min) ([10]; 1 min to 2 h): decreased over time | time of peak ERK 1/2 phosphorylation ([10]; HEK293 expressing human V2R): 5 min

non-β-arrestin-dependent signaling at V2R as restated in the discussion; EC50 [12]: 50 nM | β-arrestin-dependent signaling (β-arrestin recruitment) at V2R as restated in the discussion; EC50 [12]: > 100000 nM | β-arrestin-2 recruitment to V1bR (BRET) against I8-arachnotocin concentration; EC50 [13]: 1200 nM | β-arrestin-2 recruitment to OTR (BRET) against I8-arachnotocin concentration; EC50 [14]: 5700 nM | IP1 accumulation (Gαq) in HEK293 cells expressing human V1bR; EC50 [15]: 1200 nM | IP1 accumulation (Gαq) in HEK293 cells expressing human V1bR; Emax relative to VP [15]: 104% | IP1 accumulation (Gαq) in HEK293 cells expressing human OTR; EC50 [16]: 790 nM | IP1 accumulation (Gαq) in HEK293 cells expressing human OTR; Emax relative to OT [16]: 62% | cAMP accumulation (Gαs) in HEK293 cells expressing human V2R; EC50 [17]: 34 nM | cAMP accumulation (Gαs) in HEK293 cells expressing human V2R; Emax relative to VP [17]: 99% | Schild regression of VP-induced IP1 accumulation at human V1aR in the presence of 1, 3 and 10 µM I8-arachnotocin (blocks VP at V1aR); pA2 [18]: 6.25 | Schild regression of VP-induced IP1 accumulation at human V1aR in the presence of 1, 3 and 10 µM I8-arachnotocin (blocks VP at V1aR); pA2 as a concentration [18]: 0.558 µM
Compound: I8-arachnotocin (peptide)

β-arrestin-2 recruitment to OTR (BRET) against OT concentration; EC50 [14]: 170 nM | IP1 accumulation (Gαq) in HEK293 cells expressing human OTR; EC50 [16]: 12 nM
Compound: oxytocin (from UniProt P01178 20-28) (peptide)
